Data reported in patent publication US12018059B2, “Human amylin analog polypeptides and methods of use” (Intarcia Therapeutics, Inc., priority 2018, dated 2024).
Starred links: 1 amine or outer side, 2 acyl side, 3 side chain; linkers in the order of their positions; H or OH if unused. Positions of bridges follow the written chain, without caps; N, C: chain ends. Non-standard residues stand in square brackets, D forms with d. Residues, ends and D or L forms follow the SMILES beside them. Groups on a side chain read outwards from the residue. *: point of attachment. X2 = O=C(O)CCCCCCCCCCCCCCCCC(=O)N[C@@H](CCC(=O)NCOCCOCC(=O)NCOCCOCC(=O)*)C(=O)O; C20 diacid = O=C(O)CCCCCCCCCCCCCCCCCCC(=O)*; C18 diacid = O=C(O)CCCCCCCCCCCCCCCCC(=O)*; γGlu = O=C(O)[C@H](CCC(=O)[*:2])N[*:1]; Palmitoyl = CCCCCCCCCCCCCCCC(=O)*; AEEA = NCCOCCOCC(=O)O

Assay: in vivo
Parameters: species or system Sprague-Dawley rats
Settings: rat, iv, 0.033 mg/kg
Method in brief: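 Male Sprague-Dawley rats, non-fasted (n=3), given peptide in saline as 1-h IV or SC infusion at 0.033 mg/kg, or SC bolus at 0.3 mg/kg; jugular blood to 48 h into K2EDTA plus protease inhibitors. Plasma extracted by precipitation or WCX solid-phase extraction, quantified by UPLC-MS/MS against standards in matching rat plasma.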

Vd	clearance	half-life	Compound
0.128 L/kg	0.0948 mL/min/kg	19.5 h	CC[C@H](C)[C@H](NC(=O)[C@@H]1CCCN1C(=O)CNC(=O)[C@H](Cc1ccccc1)NC(=O)[C@H](CC(N)=O)NC(=O)[C@H](CC(N)=O)NC(=O)[C@H](CO)NC(=O)[C@H](CO)NC(=O)[C@H](CCCCN)NC(=O)[C@H](CCCCNC(=O)COCCOCNC(=O)COCCOCNC(=O)CC[C@H](NC(=O)CCCCCCCCCCCCCCCCC(=O)O)C(=O)O)NC(=O)[C@H](CC(C)C)NC(=O)[C@H](CCC(=O)O)NC(=O)[C@H](CC(N)=O)NC(=O)[C@H](C)NC(=O)[C@H](CC(C)C)NC(=O)[C@H](CCCNC(=N)N)NC(=O)[C@H](CCC(N)=O)NC(=O)[C@@H](NC(=O)[C@H](C)NC(=O)[C@@H]1CSSC[C@H](NC(=O)[C@@H](N)CO)C(=O)N[C@@H](CC(N)=O)C(=O)N[C@@H]([C@@H](C)O)C(=O)N[C@@H](CO)C(=O)N[C@@H]([C@@H](C)O)C(=O)N1)[C@@H](C)O)C(=O)N[C@@H](CC(C)C)C(=O)N1CCC[C@H]1C(=O)N1CCC[C@H]1C(=O)N[C@H](C(=O)N[C@@H](CCCCN)C(=O)N[C@H](C(=O)NCC(=O)N[C@@H](CO)C(=O)N[C@@H](CCC(=O)O)C(=O)N[C@H](C(=O)N[C@@H](Cc1ccc(O)cc1)C(N)=O)[C@@H](C)O)C(C)C)[C@@H](C)O [Compound A99] (H-SCNTSTCATQRLANELK(X2)KSSNNFGPILPPTKVGSETY-NH2; disulfide 2-7; N-terminus assumed)
0.137 L/kg	0.108 mL/min/kg	16.6 h	CC[C@H](C)[C@H](NC(=O)[C@@H]1CCCN1C(=O)CNC(=O)[C@H](Cc1ccccc1)NC(=O)[C@H](CC(N)=O)NC(=O)[C@H](CC(N)=O)NC(=O)[C@H](CO)NC(=O)[C@H](CO)NC(=O)[C@H](CCCCN)NC(=O)[C@H](Cc1c[nH]cn1)NC(=O)[C@@H](CCCCNC(=O)CC[C@H](NC(=O)CC[C@H](NC(=O)CC[C@H](NC(=O)CCCCCCCCCCCCCCCCC(=O)O)C(=O)O)C(=O)O)C(=O)O)NC(=O)[C@H](CCC(=O)O)NC(=O)[C@H](CC(N)=O)NC(=O)[C@H](C)NC(=O)[C@H](CC(C)C)NC(=O)[C@H](CCCNC(=N)N)NC(=O)[C@H](CCC(N)=O)NC(=O)[C@@H](NC(=O)[C@H](C)NC(=O)[C@@H]1CSSC[C@H](NC(=O)[C@@H](N)CO)C(=O)N[C@@H](CC(N)=O)C(=O)N[C@@H]([C@@H](C)O)C(=O)N[C@@H](CO)C(=O)N[C@@H]([C@@H](C)O)C(=O)N1)[C@@H](C)O)C(=O)N[C@@H](CC(C)C)C(=O)N1CCC[C@H]1C(=O)N1CCC[C@H]1C(=O)N[C@H](C(=O)N[C@@H](CCCCN)C(=O)N[C@H](C(=O)NCC(=O)N[C@@H](CO)C(=O)N[C@@H](CCC(=O)O)C(=O)N[C@H](C(=O)N[C@@H](Cc1ccc(O)cc1)C(N)=O)[C@@H](C)O)C(C)C)[C@@H](C)O [Compound A104] (H-SCNTSTCATQRLANE[dK]([γGlu-γGlu-γGlu-C18 diacid])HKSSNNFGPILPPTKVGSETY-NH2; disulfide 2-7)

Second part, the molecule before the results:

Compound	Vd	clearance	half-life
CC[C@H](C)[C@H](NC(=O)[C@@H]1CCCN1C(=O)CNC(=O)[C@H](Cc1ccccc1)NC(=O)[C@H](CC(N)=O)NC(=O)[C@H](CC(N)=O)NC(=O)[C@H](CO)NC(=O)[C@H](CO)NC(=O)[C@H](CCCCN)NC(=O)[C@H](Cc1c[nH]cn1)NC(=O)[C@H](CC(C)C)NC(=O)[C@@H](CCCCNC(=O)CC[C@H](NC(=O)CC[C@H](NC(=O)COCCOCCNC(=O)COCCOCCNC(=O)CC[C@H](NC(=O)CCCCCCCCCCCCCCCCCCC(=O)O)C(=O)O)C(=O)O)C(=O)O)NC(=O)[C@H](CC(N)=O)NC(=O)[C@H](C)NC(=O)[C@H](CC(C)C)NC(=O)[C@H](CCCNC(=N)N)NC(=O)[C@H](CCC(N)=O)NC(=O)[C@@H](NC(=O)[C@H](C)NC(=O)[C@@H]1CSSC[C@H](NC(=O)[C@@H](N)CO)C(=O)N[C@@H](CC(N)=O)C(=O)N[C@@H]([C@@H](C)O)C(=O)N[C@@H](CO)C(=O)N[C@@H]([C@@H](C)O)C(=O)N1)[C@@H](C)O)C(=O)N[C@@H](CC(C)C)C(=O)N1CCC[C@H]1C(=O)N1CCC[C@H]1C(=O)N[C@H](C(=O)N[C@@H](CCCCN)C(=O)N[C@H](C(=O)NCC(=O)N[C@@H](CO)C(=O)N[C@@H](CCC(=O)O)C(=O)N[C@H](C(=O)N[C@@H](Cc1ccc(O)cc1)C(N)=O)[C@@H](C)O)C(C)C)[C@@H](C)O [Compound A101] (H-SCNTSTCATQRLAN[dK]([γGlu-γGlu-AEEA-AEEA-γGlu-C20 diacid])LHKSSNNFGPILPPTKVGSETY-NH2; disulfide 2-7; N-terminus assumed)	0.149 L/kg	0.0675 mL/min/kg	28.4 h
CCCCCCCCCCCCCCCC(=O)N[C@@H](CCC(=O)NCCCC[C@H](NC(=O)[C@@H]1CSSC[C@H](NC(=O)[C@@H](N)CO)C(=O)N[C@@H](CC(N)=O)C(=O)N[C@@H]([C@@H](C)O)C(=O)N[C@@H](CO)C(=O)N[C@@H]([C@@H](C)O)C(=O)N1)C(=O)N[C@H](C(=O)N[C@@H](CCC(N)=O)C(=O)N[C@@H](CCCNC(=N)N)C(=O)N[C@@H](CC(C)C)C(=O)N[C@@H](C)C(=O)N[C@@H](CC(N)=O)C(=O)N[C@@H](CCC(=O)O)C(=O)N[C@@H](CC(C)C)C(=O)N[C@@H](Cc1c[nH]cn1)C(=O)N[C@@H](CCCCN)C(=O)N[C@@H](CO)C(=O)N[C@@H](CO)C(=O)N[C@@H](CC(N)=O)C(=O)N[C@@H](CC(N)=O)C(=O)N[C@@H](Cc1ccccc1)C(=O)NCC(=O)N1CCC[C@H]1C(=O)N[C@H](C(=O)N[C@@H](CC(C)C)C(=O)N1CCC[C@H]1C(=O)N1CCC[C@H]1C(=O)N[C@H](C(=O)N[C@@H](CCCCN)C(=O)N[C@H](C(=O)NCC(=O)N[C@@H](CO)C(=O)N[C@@H](CCC(=O)O)C(=O)N[C@H](C(=O)N[C@@H](Cc1ccc(O)cc1)C(N)=O)[C@@H](C)O)C(C)C)[C@@H](C)O)[C@@H](C)CC)[C@@H](C)O)C(=O)O [Compound A108] (H-SCNTSTCK([γGlu-Palmitoyl])TQRLANELHKSSNNFGPILPPTKVGSETY-NH2; disulfide 2-7)	0.396 L/kg	6.45 mL/min/kg	1.01 h
CC[C@H](C)[C@H](NC(=O)[C@@H]1CCCN1C(=O)CNC(=O)[C@H](Cc1ccccc1)NC(=O)[C@H](CC(N)=O)NC(=O)[C@H](CC(N)=O)NC(=O)[C@H](CO)NC(=O)[C@H](CO)NC(=O)[C@H](CCCCN)NC(=O)[C@H](CCC(N)=O)NC(=O)[C@H](CC(C)C)NC(=O)[C@H](Cc1ccccc1)NC(=O)[C@H](CC(N)=O)NC(=O)[C@H](C)NC(=O)[C@H](CC(C)C)NC(=O)[C@H](CCCNC(=N)N)NC(=O)[C@H](CO)NC(=O)[C@@H](NC(=O)[C@H](C)NC(=O)[C@@H]1CSSC[C@H](NC(=O)[C@@H](N)CCCCNC(=O)CC[C@H](NC(=O)CCCCCCCCCCCCCCCCC(=O)O)C(=O)O)C(=O)N[C@@H](CC(N)=O)C(=O)N[C@@H]([C@@H](C)O)C(=O)N[C@@H](CO)C(=O)N[C@@H]([C@@H](C)O)C(=O)N1)[C@@H](C)O)C(=O)N[C@@H](CC(C)C)C(=O)N1CCC[C@H]1C(=O)N1CCC[C@H]1C(=O)N[C@H](C(=O)N[C@@H](CCCCN)C(=O)N[C@H](C(=O)NCC(=O)N[C@@H](CO)C(=O)N[C@@H](CCC(=O)O)C(=O)N[C@H](C(=O)N[C@@H](Cc1ccc(O)cc1)C(N)=O)[C@@H](C)O)C(C)C)[C@@H](C)O [Compound A109] (H-K([γGlu-C18 diacid])CNTSTCATSRLANFLQKSSNNFGPILPPTKVGSETY-NH2; disulfide 2-7; N-terminus assumed)	0.154 L/kg	0.15 mL/min/kg	16 h
